Test system: PAD
Test: PAD activity in serum of mice with DSS-induced colitis (BAEE substrate, COLDER citrulline detection)
Type: in vivo
Details: serum of mice given 2% DSS for 1 week; Cl-amidine treated vs no treatment; p>0.005 as printed; FIG. 2A
Method: A mouse model of colitis was used to develop a method for detecting disease incidence and disease severity by measuring the PAD activity present in serum. In this model, mice were […] or orally administered 2% dextran sulfate sodium (DSS) for 1 week to induce colitis. This model induced moderate to severe colon inflammation, shortening of the colon, and ulcer formation. The efficacy was tested of the PAD inhibitor, Cl-amidine, to determine if PAD activity was diminished in a group of Cl-amidine treated mice versus a group receiving no treatment with the PAD inhibitor. As a control, mice were given water without 2% DSS.
To determine PAD activity levels within the mice, serum samples were collected, then resuspended in Homogenization Buffer (50 mM HEPES pH 7.6, 10% glycerol, 1% NP-40, 1 mM PMSF, and 2 mM DTT) and homogenized using a glass dounce homogenizer. Serum samples were then centrifuged at 10,600 g for 20 min to remove cellular debris. The protein concentration was measured using the Lowry assay. PAD activity was determined by incubating serum samples in a Reaction Buffer (100 mM 4-(2-hydroxyethyl)-1-piperazineethanesulfonic acid (“HEPES”) pH 7.6, 500 mM NaCl, […] (“DTT”), 100 mM CaCl2, and 100 mM N-benzoyl-L-arginine ethyl ester (“BAEE”)) as substrate for the PAD. Incubation was carried out for 2 h at 37° C. in duplicate before freezing in liquid nitrogen. […]

NC(=O)[C@H](CCCN=C(N)CCl)NC(=O)c1ccccc1 [Cl-amidine]
decrease in PAD activity as compared to the no treatment mice: greater than 2.3 fold

Reference: US20120295292A1, “Detecting Protein Arginine Deiminase (PAD) Activity in Human Tissues and Sera” (University of South Carolina, priority 2011, published 2012)
